# Where two headings read alike, the source gives them in different places.
# Legend:
# IRAK3 = IRAK3 (Homo sapiens, UniProt Q9Y616); assay: KINOMEscan binding assay; settings: read-out: % Ctrl @ 10000 nM
# ICK = ICK (Homo sapiens, UniProt Q9UPZ9); assay: KINOMEscan binding assay; settings: read-out: % Ctrl @ 10000 nM
# EPHA1 = EPHA1 (Homo sapiens, UniProt P21709); assay: KINOMEscan binding assay; settings: read-out: % Ctrl @ 10000 nM
# [1] = molecular target: RSK1 Kin.Dom.2-C-terminal (Homo sapiens, UniProt Q15418); assay: KINOMEscan binding assay; settings: read-out: % Ctrl @ 10000 nM
# RSK1 Kin.Dom.2-C-terminal, sequence (Q15418 418-675 limits assumed): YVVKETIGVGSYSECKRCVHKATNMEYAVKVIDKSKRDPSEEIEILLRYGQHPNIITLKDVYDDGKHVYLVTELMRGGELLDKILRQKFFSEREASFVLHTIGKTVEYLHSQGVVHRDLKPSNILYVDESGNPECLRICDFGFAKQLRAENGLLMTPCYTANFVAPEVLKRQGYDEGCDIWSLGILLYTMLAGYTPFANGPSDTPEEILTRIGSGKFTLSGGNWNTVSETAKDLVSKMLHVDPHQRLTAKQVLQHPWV
# PLK1 = PLK1 (Homo sapiens, UniProt P53350); assay: KINOMEscan binding assay; settings: read-out: % Ctrl @ 10000 nM
# DYRK2 = DYRK2 (Homo sapiens, UniProt Q92630); assay: KINOMEscan binding assay; settings: read-out: % Ctrl @ 10000 nM
# FGFR3 = FGFR3 (Homo sapiens, UniProt P22607); assay: KINOMEscan binding assay; settings: read-out: % Ctrl @ 10000 nM
# PIP5K1C = PIP5K1C (Homo sapiens, UniProt O60331); assay: KINOMEscan binding assay; settings: read-out: % Ctrl @ 10000 nM
# [2] = molecular target: EGFR (L747-S752del, P753S) (Homo sapiens, UniProt P00533, DEL747-752/P753S); assay: KINOMEscan binding assay; settings: read-out: % Ctrl @ 10000 nM
# EGFR (L747-S752del, P753S), sequence (P00533 with tags, fused parts or gaps DEL747-752/P753S): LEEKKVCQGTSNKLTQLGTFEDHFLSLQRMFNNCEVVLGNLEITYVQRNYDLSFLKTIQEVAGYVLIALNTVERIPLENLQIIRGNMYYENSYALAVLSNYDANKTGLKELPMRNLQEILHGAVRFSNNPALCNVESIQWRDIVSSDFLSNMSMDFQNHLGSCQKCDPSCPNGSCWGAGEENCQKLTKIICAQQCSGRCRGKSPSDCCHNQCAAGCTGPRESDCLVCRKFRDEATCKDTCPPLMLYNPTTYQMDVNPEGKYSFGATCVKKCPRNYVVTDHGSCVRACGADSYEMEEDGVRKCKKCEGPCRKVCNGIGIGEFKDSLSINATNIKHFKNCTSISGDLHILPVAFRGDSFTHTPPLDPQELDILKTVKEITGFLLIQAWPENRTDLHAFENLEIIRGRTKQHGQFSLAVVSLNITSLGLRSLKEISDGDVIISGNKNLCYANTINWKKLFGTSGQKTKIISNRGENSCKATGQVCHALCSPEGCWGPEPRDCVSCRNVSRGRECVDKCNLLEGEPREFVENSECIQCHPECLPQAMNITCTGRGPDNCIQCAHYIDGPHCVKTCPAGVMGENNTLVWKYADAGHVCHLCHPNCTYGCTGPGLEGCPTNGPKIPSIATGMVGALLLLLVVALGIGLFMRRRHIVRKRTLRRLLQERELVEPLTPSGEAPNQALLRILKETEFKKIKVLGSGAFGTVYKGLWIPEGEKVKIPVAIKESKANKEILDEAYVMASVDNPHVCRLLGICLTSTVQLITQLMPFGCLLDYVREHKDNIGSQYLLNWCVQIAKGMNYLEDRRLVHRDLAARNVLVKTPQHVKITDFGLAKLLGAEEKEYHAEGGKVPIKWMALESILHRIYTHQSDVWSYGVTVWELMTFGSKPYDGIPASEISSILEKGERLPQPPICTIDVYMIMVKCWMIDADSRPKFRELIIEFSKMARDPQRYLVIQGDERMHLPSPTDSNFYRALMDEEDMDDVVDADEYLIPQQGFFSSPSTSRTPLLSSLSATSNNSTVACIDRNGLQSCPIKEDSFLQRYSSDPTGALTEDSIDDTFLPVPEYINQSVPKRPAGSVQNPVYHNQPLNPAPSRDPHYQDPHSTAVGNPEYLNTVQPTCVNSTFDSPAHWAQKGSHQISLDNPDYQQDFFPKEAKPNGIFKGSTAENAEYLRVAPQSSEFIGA
# HASPIN = HASPIN (Homo sapiens, UniProt Q8TF76); assay: KINOMEscan binding assay; settings: read-out: % Ctrl @ 10000 nM
# HASPIN, sequence (Q8TF76 whole entry): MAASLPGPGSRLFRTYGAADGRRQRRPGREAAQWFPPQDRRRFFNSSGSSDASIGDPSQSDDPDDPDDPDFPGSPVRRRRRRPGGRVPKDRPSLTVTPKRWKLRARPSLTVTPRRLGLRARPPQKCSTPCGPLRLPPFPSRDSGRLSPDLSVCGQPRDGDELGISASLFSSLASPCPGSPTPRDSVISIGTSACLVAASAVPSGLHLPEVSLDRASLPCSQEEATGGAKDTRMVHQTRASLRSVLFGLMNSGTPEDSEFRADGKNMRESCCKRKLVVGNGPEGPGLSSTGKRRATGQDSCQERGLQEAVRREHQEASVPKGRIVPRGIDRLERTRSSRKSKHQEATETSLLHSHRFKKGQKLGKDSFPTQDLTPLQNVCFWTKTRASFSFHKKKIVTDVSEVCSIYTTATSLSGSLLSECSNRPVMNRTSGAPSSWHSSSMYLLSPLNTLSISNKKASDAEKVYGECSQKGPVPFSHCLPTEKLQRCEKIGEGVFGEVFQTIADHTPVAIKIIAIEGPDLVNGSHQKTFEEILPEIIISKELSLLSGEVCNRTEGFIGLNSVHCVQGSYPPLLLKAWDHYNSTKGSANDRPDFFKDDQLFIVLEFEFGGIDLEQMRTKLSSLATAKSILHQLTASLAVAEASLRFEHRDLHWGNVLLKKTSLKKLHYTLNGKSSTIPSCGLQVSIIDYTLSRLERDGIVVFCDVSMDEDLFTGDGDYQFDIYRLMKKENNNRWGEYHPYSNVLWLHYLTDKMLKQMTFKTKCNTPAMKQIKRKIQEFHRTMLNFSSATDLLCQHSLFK
# CDC2L1 = CDC2L1 (Homo sapiens, UniProt P21127); assay: KINOMEscan binding assay; settings: read-out: % Ctrl @ 10000 nM
# CSNK1E = CSNK1E (Homo sapiens, UniProt P49674); assay: KINOMEscan binding assay; settings: read-out: % Ctrl @ 10000 nM
# [3] = Pharmacokinetics in male CD-1 mice; assay type: in vivo; settings: for AUCex: percent of AUC0-inf that is extrapolated; for AUC(0-t): male, CD-1, mouse; for AUC(0-t) / bioavailability / Cmax / Tmax / half-life / AUC(0-inf) / clearance / Vd / CL/F / Vd/F: plasma; for bioavailability / Cmax / Tmax / half-life / AUC(0-inf) / clearance / Vd / CL/F / Vd/F: mouse; for bioavailability: read-out: F (oral bioavailability); for AUC(0-inf) / clearance / Vd / CL/F / Vd/F: predicted; for Vd: read-out: Vz; for Vd/F: read-out: Vz/F
# Procedure: Six groups of male CD-1 mice of approximately 25-35 g (about 8 weeks of age) were dosed with Comparative compound 324 and Compound A intravenously (IV) (in 10% DMSO:90% Hydroxypropyl-β-cyclodextrin (20% aq. w/v)) or orally (PO) (in 0.5% w/v methylcelluose (aq.) according to the regimen shown in Table 6.
# Intravenous doses was administered into a tail vein at a constant dose volume of 5 mL/kg to achieve a dose level of 3 mg/kg. Oral doses were administered as a single bolus dose via syringe with attached polypropylene gavage tube at a constant dose volume of 10 mL/kg to achieve dose levels of 3 mg/kg (groups 2 and 4) and 30 mg/kg (group 3 and 6).
# Following dosing, blood samples were collected into individual K3EDTA tubes by cardiac puncture under terminal anaesthesia (isoflurane) from 3 animals per timepoint. Following collection animal were sacrificed by cervical dislocation. Samples were taken at 5, 15 and 30 minutes and then 1, 2, 4, 8 and 24 hours post-IV dose and 15 and 30 minutes and then 1, 2, 4, 8 and 24 hours post-OP dose.
# Upon collection, blood samples were centrifuged at 10,000×g, 2 minutes at 4° C. and the resultant plasma was drawn off and stored at −20° C. for analysis by LC-MS/MS of the concentration of the compounds. The remaining blood call pellet was discarded.
# Pharmacokinetic parameters were derived by non-compartmental analysis (linear/logarithmic trapezoidal) using WinNonlin (Version 4.1 or higher) software.
# PAK1 = PAK1 (Homo sapiens, UniProt Q13153); assay: KINOMEscan binding assay; settings: read-out: % Ctrl @ 10000 nM
# ABL2 = ABL2 (Homo sapiens, UniProt P42684); assay: KINOMEscan binding assay; settings: read-out: % Ctrl @ 10000 nM
# KIT = KIT (Homo sapiens, UniProt P10721); assay: KINOMEscan binding assay; settings: read-out: % Ctrl @ 10000 nM
# KIT, sequence (P10721 26-976): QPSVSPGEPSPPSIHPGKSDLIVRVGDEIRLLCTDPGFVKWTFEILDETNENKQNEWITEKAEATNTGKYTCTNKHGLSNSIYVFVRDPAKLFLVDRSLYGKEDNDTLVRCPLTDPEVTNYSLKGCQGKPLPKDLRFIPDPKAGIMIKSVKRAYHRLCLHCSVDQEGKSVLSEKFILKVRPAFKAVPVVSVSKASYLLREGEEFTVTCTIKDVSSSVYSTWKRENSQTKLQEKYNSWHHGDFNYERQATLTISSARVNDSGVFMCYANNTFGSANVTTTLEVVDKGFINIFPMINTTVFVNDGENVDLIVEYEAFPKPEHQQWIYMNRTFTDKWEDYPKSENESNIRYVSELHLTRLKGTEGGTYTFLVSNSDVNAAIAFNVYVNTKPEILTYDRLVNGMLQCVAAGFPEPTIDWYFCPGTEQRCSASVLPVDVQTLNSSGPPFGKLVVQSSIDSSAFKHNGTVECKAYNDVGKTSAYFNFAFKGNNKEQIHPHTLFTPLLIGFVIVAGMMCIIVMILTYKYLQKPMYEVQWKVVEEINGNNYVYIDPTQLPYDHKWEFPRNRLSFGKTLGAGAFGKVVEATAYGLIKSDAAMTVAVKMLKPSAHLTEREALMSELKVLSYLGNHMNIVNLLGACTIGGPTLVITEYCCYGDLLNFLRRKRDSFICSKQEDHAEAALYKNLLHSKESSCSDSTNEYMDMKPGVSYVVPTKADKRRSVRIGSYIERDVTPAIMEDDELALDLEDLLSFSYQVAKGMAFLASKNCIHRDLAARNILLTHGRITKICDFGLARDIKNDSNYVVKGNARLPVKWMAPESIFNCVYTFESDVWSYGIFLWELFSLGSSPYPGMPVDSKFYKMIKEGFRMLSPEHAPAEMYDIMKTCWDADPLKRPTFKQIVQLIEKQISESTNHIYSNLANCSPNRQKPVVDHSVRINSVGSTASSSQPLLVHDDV
# AURKA = AURKA (Homo sapiens, UniProt O14965); assay: KINOMEscan binding assay; settings: read-out: % Ctrl @ 10000 nM
# p38-alpha = p38-alpha (Homo sapiens, UniProt Q16539); assay: KINOMEscan binding assay; settings: read-out: % Ctrl @ 10000 nM
# CSNK1G2 = CSNK1G2 (Homo sapiens, UniProt P78368); assay: KINOMEscan binding assay; settings: read-out: % Ctrl @ 10000 nM
# CSNK1G2, sequence (P78368 whole entry): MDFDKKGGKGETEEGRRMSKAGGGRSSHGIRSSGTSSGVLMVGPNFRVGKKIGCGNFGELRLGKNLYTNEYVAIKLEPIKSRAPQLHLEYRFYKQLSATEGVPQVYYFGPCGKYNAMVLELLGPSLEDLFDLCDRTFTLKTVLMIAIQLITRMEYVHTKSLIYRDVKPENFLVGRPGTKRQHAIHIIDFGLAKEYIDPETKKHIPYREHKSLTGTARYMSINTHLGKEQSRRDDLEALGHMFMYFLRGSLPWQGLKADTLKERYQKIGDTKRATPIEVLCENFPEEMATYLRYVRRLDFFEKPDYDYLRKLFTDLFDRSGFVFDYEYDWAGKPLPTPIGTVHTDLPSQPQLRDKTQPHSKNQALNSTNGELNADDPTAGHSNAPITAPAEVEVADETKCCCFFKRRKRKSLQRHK
# GRK7 = GRK7 (Homo sapiens, UniProt Q8WTQ7); assay: KINOMEscan binding assay; settings: read-out: % Ctrl @ 10000 nM
# GRK7, sequence (Q8WTQ7 whole entry): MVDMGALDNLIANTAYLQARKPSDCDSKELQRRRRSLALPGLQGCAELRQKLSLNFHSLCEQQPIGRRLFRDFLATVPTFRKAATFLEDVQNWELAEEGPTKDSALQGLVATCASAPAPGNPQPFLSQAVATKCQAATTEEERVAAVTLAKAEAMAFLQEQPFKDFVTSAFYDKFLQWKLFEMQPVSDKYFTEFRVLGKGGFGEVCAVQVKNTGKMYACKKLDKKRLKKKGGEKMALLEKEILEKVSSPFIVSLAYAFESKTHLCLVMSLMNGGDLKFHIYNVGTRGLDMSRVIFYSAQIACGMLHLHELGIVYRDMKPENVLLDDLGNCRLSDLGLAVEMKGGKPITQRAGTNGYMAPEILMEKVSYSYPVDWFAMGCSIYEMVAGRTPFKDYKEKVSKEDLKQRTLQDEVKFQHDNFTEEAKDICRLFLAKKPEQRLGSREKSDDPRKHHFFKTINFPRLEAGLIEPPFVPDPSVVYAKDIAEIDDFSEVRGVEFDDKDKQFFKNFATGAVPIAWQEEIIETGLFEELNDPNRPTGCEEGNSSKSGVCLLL
# GRK1 = GRK1 (Homo sapiens, UniProt Q15835); assay: KINOMEscan binding assay; settings: read-out: % Ctrl @ 10000 nM
# MYLK = MYLK (Homo sapiens, UniProt Q15746); assay: KINOMEscan binding assay; settings: read-out: % Ctrl @ 10000 nM
# MAP4K4 = molecular target: T1, MAP4K4 (Homo sapiens, UniProt O95819); assay: KINOMEscan binding assay; settings: read-out: % Ctrl @ 10000 nM
# T1 construct: T7 phage fusion (most assays) or DNA label after HEK293 expression; purchased DiscoveRx (KINOMEscan, LeadHunter Discovery services); host or cells: T7 phage in E. coli (BL21-derived) or HEK293
# [4] = iv, 3 mg/kg, IV 3 mg/kg, male CD-1 mice, read-out: AUC0-24 h
# [5] = iv, 3 mg/kg, IV 3 mg/kg, male CD-1 mice, read-out: AUC0-t
# [6] = po, 3 mg/kg, PO 3 mg/kg, male CD-1 mice, read-out: AUC0-24 h
# [7] = po, 3 mg/kg, PO 3 mg/kg, male CD-1 mice, read-out: AUC0-t
# [8] = po, 30 mg/kg, PO 30 mg/kg, male CD-1 mice, read-out: AUC0-24 h
# [9] = po, 30 mg/kg, PO 30 mg/kg, male CD-1 mice, read-out: AUC0-t
# ICK, sequence (Q9UPZ9 whole entry): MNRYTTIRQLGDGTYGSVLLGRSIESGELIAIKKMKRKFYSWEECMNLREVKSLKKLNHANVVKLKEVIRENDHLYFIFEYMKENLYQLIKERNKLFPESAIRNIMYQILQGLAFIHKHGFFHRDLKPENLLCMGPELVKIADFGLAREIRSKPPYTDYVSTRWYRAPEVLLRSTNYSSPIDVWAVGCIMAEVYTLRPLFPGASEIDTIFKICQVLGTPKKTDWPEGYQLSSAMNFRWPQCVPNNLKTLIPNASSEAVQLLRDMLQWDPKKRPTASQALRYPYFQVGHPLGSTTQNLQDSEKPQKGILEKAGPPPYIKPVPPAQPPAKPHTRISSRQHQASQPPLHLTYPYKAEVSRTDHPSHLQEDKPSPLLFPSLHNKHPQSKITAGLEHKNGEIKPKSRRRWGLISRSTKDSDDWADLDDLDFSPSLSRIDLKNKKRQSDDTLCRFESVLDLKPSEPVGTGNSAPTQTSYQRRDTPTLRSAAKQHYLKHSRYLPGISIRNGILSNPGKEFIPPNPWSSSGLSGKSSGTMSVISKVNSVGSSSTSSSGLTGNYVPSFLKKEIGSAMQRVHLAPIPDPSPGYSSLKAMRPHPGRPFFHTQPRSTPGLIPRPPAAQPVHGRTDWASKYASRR
structure (smiles),measurement,setting,value
"Nc1ncc(-c2nc3ccccc3o2)c(-c2ccncc2)n1 [Comparative Compound 324, 5-(1,3-benzoxazol-2-yl)-4-(pyridine-4-yl)pyrimidin-2-amine]",remaining binding at 10 µM,IRAK3,90%
same,remaining binding at 10 µM,ICK,99%
same,remaining binding at 10 µM,EPHA1,83%
same,remaining binding at 10 µM,[1],44%
same,remaining binding at 10 µM,PLK1,90%
same,remaining binding at 10 µM,DYRK2,82%
same,remaining binding at 10 µM,FGFR3,95%
same,remaining binding at 10 µM,PIP5K1C,75%
same,remaining binding at 10 µM,[2],57%
same,remaining binding at 10 µM,HASPIN,70%
same,remaining binding at 10 µM,CDC2L1,91%
same,remaining binding at 10 µM,CSNK1E,1.4%
same,AUCex,[3]; IV 3 mg/kg,1.9%
same,AUC(0-t),[3]; [4],315 ng·h/mL
same,AUC(0-t),[3]; [5],304 ng·h/mL
same,AUC(0-t),[3]; [6],11.1 ng·h/mL
same,AUC(0-t),[3]; [7],8.66 ng·h/mL
same,AUC(0-t),[3]; [8],1590 ng·h/mL
same,AUC(0-t),[3]; [9],1210 ng·h/mL
same,bioavailability,"[3]; PO 3 mg/kg, male CD-1 mice",3%
same,bioavailability,"[3]; PO 30 mg/kg, male CD-1 mice",40%
same,Cmax,"[3]; IV 3 mg/kg, male CD-1 mice",1150 ng/mL
same,Tmax,"[3]; IV 3 mg/kg, male CD-1 mice",4.98 min
same,half-life,"[3]; IV 3 mg/kg, male CD-1 mice",5.46 min
same,AUC(0-inf),"[3]; IV 3 mg/kg, male CD-1 mice",309 ng·h/mL
same,clearance,"[3]; IV 3 mg/kg, male CD-1 mice",162 mL/min/kg
same,Vd,"[3]; IV 3 mg/kg, male CD-1 mice",1.27 L/kg
same,Cmax,"[3]; PO 3 mg/kg, male CD-1 mice",14 ng/mL
same,Tmax,"[3]; PO 3 mg/kg, male CD-1 mice",15 min
same,Cmax,"[3]; PO 30 mg/kg, male CD-1 mice",666 ng/mL
same,Tmax,"[3]; PO 30 mg/kg, male CD-1 mice",30 min
same,remaining binding at 10 µM,PAK1,75%
same,remaining binding at 10 µM,ABL2,85%
same,remaining binding at 10 µM,KIT,91%
same,remaining binding at 10 µM,AURKA,99%
same,remaining binding at 10 µM,p38-alpha,33%
same,remaining binding at 10 µM,CSNK1G2,72%
same,remaining binding at 10 µM,GRK7,91%
same,remaining binding at 10 µM,GRK1,68%
same,remaining binding at 10 µM,MYLK,86%
same,remaining binding at 10 µM,MAP4K4,97%
"CNc1c(C(N)=O)c2ccccn2c1C(=O)c1ccc(F)cc1 [Compound A, 2-methyl-amino-3-[(4-fluorophenyl)carbonyl]indolizine-1-carboxamide]",remaining binding at 10 µM,IRAK3,60%
same,remaining binding at 10 µM,ICK,93%
same,remaining binding at 10 µM,EPHA1,72%
same,remaining binding at 10 µM,[1],23%
same,remaining binding at 10 µM,PLK1,82%
same,remaining binding at 10 µM,DYRK2,83%
same,remaining binding at 10 µM,FGFR3,90%
same,remaining binding at 10 µM,PIP5K1C,67%
same,remaining binding at 10 µM,[2],11%
same,remaining binding at 10 µM,HASPIN,45%
same,remaining binding at 10 µM,CDC2L1,85%
same,remaining binding at 10 µM,CSNK1E,0.1%
same,AUCex,[3]; IV 3 mg/kg,0.1%
same,AUCex,[3]; PO 3 mg/kg,6.3%
same,AUCex,[3]; PO 30 mg/kg,18.5%
same,clearance after administration,"[3]; male CD-1 mice, 24 hours after administration",completely cleared after 24 hours
same,AUC(0-t),[3]; [4],502 ng·h/mL
same,AUC(0-t),[3]; [5],498 ng·h/mL
same,AUC(0-t),[3]; [6],35.4 ng·h/mL
same,AUC(0-t),[3]; [7],32.4 ng·h/mL
same,AUC(0-t),[3]; [8],659 ng·h/mL
same,AUC(0-t),[3]; [9],470 ng·h/mL
same,bioavailability,"[3]; PO 3 mg/kg, male CD-1 mice",7%
same,bioavailability,"[3]; PO 30 mg/kg, male CD-1 mice",9%
same,Cmax,"[3]; IV 3 mg/kg, male CD-1 mice",1680 ng/mL
same,Tmax,"[3]; IV 3 mg/kg, male CD-1 mice",4.98 min
same,half-life,"[3]; IV 3 mg/kg, male CD-1 mice",13.8 min
same,AUC(0-inf),"[3]; IV 3 mg/kg, male CD-1 mice",499 ng·h/mL
same,clearance,"[3]; IV 3 mg/kg, male CD-1 mice",100 mL/min/kg
same,Vd,"[3]; IV 3 mg/kg, male CD-1 mice",2 L/kg
same,Cmax,"[3]; PO 3 mg/kg, male CD-1 mice",47 ng/mL
same,Tmax,"[3]; PO 3 mg/kg, male CD-1 mice",15 min
same,half-life,"[3]; PO 3 mg/kg, male CD-1 mice",29.4 min
same,AUC(0-inf),"[3]; PO 3 mg/kg, male CD-1 mice",34.6 ng·h/mL
same,CL/F,"[3]; PO 3 mg/kg, male CD-1 mice",1450 mL/min/kg
same,Vd/F,"[3]; PO 3 mg/kg, male CD-1 mice",61.4 L/kg
same,Cmax,"[3]; PO 30 mg/kg, male CD-1 mice",237 ng/mL
same,Tmax,"[3]; PO 30 mg/kg, male CD-1 mice",30 min
same,half-life,"[3]; PO 30 mg/kg, male CD-1 mice",210 min
same,AUC(0-inf),"[3]; PO 30 mg/kg, male CD-1 mice",576 ng·h/mL
same,CL/F,"[3]; PO 30 mg/kg, male CD-1 mice",868 mL/min/kg
same,Vd/F,"[3]; PO 30 mg/kg, male CD-1 mice",264 L/kg
same,remaining binding at 10 µM,PAK1,71%
same,remaining binding at 10 µM,ABL2,68%
same,remaining binding at 10 µM,KIT,32%
same,remaining binding at 10 µM,AURKA,91%
same,remaining binding at 10 µM,p38-alpha,6%
same,remaining binding at 10 µM,CSNK1G2,99%
same,remaining binding at 10 µM,GRK7,65%
same,remaining binding at 10 µM,GRK1,53%
same,remaining binding at 10 µM,MYLK,71%
same,remaining binding at 10 µM,MAP4K4,86%
